Results as given in paper PMC4249970 (PLoS ONE, 2014).
One block for each compound: values may come before it.

Columns and labels:
[1] = system: acetic acid-induced writhing in CD-1 male mice; experiment: acetic acid writhing test (model of visceral pain); format: in vivo; conditions: for number of stretches: writhing test 30 minutes after antagonist
Description: After acetic acid administration, mice were placed in individual transparent containers and, after 5 min, the number of writhes was counted during a 10 min period.
The animals, CD-1 male mice (25–27 g), were redistributed in groups, two of which were used as the control group. […] All drugs were intraperitoneally (i.p.) administered, 30 minutes before the algogen agent. Control mice were treated with 10 ml/kg of saline solution. Each group included 10–12 animals; those animals showing behavioral alterations were previously discarded. Each animal was used only once. An observer who was unaware of the different treatments carried out the collection of data.
The experimental test used was the acetic acid writhing test. The effect of the i.p. administration of 10 ml/kg of acetic acid (2%) was measured by quantifying the number of writhing responses in the three groups of animals over a 10 minutes period. Responses were measured starting 5 minutes after the algogen agent was administered. The animals used were supplied by the animal house of Universidad Rey Juan Carlos. Room temperature was kept at 22±1°C. A 12 hours light - dark cycle was started at 8:00 a.m., at constant humidity. All animals were given free access to food and water.

TRPA1 [2] = biological target: T1, TRPA1 (Homo sapiens, UniProt O75762); experiment: Ca2+ fluorographic assay, TRPA1-IMR90 cells activated with 100 µM AITC; format: cell-based; design: expressed in transfected cells; host or cells: IMR90
T1 sequence (O75762 whole entry): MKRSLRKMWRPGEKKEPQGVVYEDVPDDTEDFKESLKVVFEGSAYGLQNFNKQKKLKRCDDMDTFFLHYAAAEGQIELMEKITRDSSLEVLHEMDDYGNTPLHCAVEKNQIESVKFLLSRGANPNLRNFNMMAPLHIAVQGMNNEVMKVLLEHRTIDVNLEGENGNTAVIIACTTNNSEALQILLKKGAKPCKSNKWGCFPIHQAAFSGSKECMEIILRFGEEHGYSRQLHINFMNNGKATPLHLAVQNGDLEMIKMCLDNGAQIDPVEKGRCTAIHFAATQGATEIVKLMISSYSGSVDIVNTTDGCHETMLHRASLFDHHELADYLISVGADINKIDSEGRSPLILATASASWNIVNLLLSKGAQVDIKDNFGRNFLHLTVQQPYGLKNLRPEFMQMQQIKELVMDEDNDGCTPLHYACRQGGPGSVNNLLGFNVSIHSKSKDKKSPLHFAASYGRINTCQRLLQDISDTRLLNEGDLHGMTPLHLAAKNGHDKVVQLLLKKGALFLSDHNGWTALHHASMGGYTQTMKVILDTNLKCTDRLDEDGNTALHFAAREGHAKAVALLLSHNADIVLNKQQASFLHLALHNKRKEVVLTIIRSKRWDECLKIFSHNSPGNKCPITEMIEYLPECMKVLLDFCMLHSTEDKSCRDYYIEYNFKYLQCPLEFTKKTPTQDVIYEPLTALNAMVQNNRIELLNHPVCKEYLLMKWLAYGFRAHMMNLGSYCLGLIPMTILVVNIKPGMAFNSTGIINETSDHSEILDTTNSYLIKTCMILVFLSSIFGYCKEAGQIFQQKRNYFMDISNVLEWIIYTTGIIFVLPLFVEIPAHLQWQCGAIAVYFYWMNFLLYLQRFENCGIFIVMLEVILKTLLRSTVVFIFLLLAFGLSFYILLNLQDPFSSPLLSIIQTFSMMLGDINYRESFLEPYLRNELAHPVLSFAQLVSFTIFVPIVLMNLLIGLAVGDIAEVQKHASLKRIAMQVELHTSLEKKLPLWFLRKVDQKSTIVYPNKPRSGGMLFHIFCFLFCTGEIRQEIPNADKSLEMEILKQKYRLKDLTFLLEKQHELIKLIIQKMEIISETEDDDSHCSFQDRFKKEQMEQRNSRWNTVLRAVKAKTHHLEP
Description: (§1) For fluorescence assays, cells expressing TRP channels (TRPV1-SH-SY5Y, TRPM8-HEK and TRPA1-IMR90) were seeded in 96-well plates (Corning Incorporated, Corning, NY) at a cell density of 40,000 cells 2 days before treatment. The day of treatment the medium was replaced with 100 µL of the dye loading solution Fluo-4 NW supplemented with probenecid 2.5 mM. Then the compounds dissolved in DMSO were added at the desired concentrations and the plate(s) were incubated at 37°C in a humidified atmosphere of 5% CO2 for 60 minutes.
(§2) The fluorescence was measured using instrument settings appropriate for excitation at 485 nm and emission at 535 nm. (POLARstar Omega BMG LAB tech). A baseline recording of 7 cycles was recorded prior to stimulation with the agonist (10 µM capsaicin for TRPV1, 100 µM menthol for TRPM8, and 100 µM AITC for TRPA1). The corresponding antagonist (10 µM Ruthenium Red for TRPV1 and TRPA1, 100 µM AMTB for TRPM8) was added for the blockade. The changes in fluorescence intensity were recorded during 15 cycles more. DMSO, at the higher concentration used in the experiment, was added to the control wells.
(§3) The degree of blockage (%) of TRP channel activity was calculated by: [drawing 1]

TRPA1 [3] = biological target: T1, TRPA1; experiment: whole-cell voltage clamp of AITC-evoked currents in hTRPA1-expressing IMR-90 cells; format: cell-based; design: expressed in transfected cells; host or cells: IMR-90; conditions: 100 µM AITC
Description: A) Representative whole-cell voltage clamp recording from hTRPA1-expressing IMR-90. Currents were measured every second during a holding potential of -60 mV. Pre-application of 6a/b (20 s) was followed by co-application with 100 µM AITC for 60s in presence of 2.0 mM extracellular Ca^2+. Current traces of different colours denote the different concentrations of compound 6a/b tested. B) Dose response of compound 6a/b blockade activity. Solid line depicts the fitting to a Michaelis isotherm. […] Data are given as mean ± sem, with n≥4 cells) per data point. (TIF) Click here for additional data file.
A) Representative whole-cell voltage clamp recording from hTRPA1-expressing IMR-90 cells in the absence of extracellular Ca^2+. Ionic currents, at positive and negative potentials were measured every 2s during a 350 ms voltage ramp from −60 mV to +60 mV and evoked with 100 µM AITC followed by the addition of 100 µM compound 6a/b for 20s. AITC was present with drug application and after application to evaluated current reversibility B) Current-voltage relationships of TRPA1 in the absence and presence of 100 µM compound 6a/b in Ca^2+ free medium. […] Data were obtained from n≥4 cells. (TIF) Click here for additional data file.

TRPM8 = biological target: T2, TRPM8 (Homo sapiens, UniProt Q7Z2W7); experiment: Ca2+ fluorographic assay, TRPM8-HEK cells activated with 100 µM menthol; format: cell-based; conditions: 50 µM compound
T2 construct: expressed in transfected cells; host or cells: HEK
T2 sequence (Q7Z2W7 whole entry, species assumed): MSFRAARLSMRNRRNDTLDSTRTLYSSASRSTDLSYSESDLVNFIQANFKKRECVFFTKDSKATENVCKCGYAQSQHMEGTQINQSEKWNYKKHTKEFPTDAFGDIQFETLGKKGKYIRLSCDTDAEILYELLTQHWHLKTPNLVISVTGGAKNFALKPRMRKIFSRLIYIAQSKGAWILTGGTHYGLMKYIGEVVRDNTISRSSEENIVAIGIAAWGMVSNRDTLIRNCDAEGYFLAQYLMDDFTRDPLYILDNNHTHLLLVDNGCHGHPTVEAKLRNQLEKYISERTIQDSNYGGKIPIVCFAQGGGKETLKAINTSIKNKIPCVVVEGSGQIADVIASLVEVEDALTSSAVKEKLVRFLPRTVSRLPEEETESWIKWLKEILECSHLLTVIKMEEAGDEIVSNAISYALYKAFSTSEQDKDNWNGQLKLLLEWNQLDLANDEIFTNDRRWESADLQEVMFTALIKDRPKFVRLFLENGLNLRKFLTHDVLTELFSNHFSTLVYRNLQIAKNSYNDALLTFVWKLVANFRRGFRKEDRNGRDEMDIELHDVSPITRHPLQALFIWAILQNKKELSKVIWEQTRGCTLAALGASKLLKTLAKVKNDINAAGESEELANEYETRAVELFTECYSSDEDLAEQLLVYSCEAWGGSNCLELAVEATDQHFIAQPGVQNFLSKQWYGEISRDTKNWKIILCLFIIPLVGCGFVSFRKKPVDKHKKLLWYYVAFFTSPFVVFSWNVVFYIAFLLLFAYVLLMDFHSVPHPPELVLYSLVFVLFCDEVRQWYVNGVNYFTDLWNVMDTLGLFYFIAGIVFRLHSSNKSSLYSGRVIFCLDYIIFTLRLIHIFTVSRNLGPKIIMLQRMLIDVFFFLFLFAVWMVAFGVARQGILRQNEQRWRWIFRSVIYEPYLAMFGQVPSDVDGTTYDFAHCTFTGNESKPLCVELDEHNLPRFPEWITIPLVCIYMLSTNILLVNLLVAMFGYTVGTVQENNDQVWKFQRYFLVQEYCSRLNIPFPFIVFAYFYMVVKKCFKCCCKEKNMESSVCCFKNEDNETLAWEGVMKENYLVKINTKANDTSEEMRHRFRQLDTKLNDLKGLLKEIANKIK
Description: as §1, §2, §3

human recombinant COX-2 = biological target: T3, human recombinant COX-2 (Homo sapiens, UniProt P35354); experiment: COX inhibitor screening assay (Cayman kit 700100); format: biochemical; conditions: at 10 mM
T3 construct: purchased Cayman Chemical Company kit 700100
T3 sequence (P35354 18-604): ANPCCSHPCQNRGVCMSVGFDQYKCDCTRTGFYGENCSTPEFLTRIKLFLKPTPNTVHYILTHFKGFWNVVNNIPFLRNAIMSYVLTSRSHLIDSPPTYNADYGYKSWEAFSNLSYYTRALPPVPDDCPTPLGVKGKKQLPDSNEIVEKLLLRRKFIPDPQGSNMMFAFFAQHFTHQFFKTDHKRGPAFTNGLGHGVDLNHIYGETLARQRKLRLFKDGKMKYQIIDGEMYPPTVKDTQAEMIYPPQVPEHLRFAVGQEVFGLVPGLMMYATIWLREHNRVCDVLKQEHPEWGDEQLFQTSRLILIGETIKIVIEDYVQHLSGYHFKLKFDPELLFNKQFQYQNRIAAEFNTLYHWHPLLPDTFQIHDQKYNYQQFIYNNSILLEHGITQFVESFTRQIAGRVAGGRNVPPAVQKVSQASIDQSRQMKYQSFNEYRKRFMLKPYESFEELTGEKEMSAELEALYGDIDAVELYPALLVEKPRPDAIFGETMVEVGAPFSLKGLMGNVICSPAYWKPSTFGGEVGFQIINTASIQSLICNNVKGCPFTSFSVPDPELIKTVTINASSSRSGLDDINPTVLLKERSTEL
Excerpt: A COX inhibitor screening assay (kit 700100) was used to determine the activity of isolated ovine COX-1 and human recombinant COX-2 as described by the manufacturer (Cayman Chemical Company, USA).

TRPV1 = experiment: Ca2+ fluorographic assay, TRPV1-SH-SY5Y cells activated by 10 µM capsaicin; format: cell-based; conditions: 50 µM compound
Description: as §1, §2, §3

[4] = i.p. 30 minutes before acetic acid

SMILES: CC(=O)NC12CC3CC(CC(O)(C3)C1)C2 [compound 5, N-3-hydroxyadamantan-1-yl acetamide]
dose at which the analgesic effect saturated [1, 4]: 200 mg/kg
antinociceptive activity ([1]; i.p. 30 minutes before acetic acid, similar to paracetamol): ~40%

melting point: 184 °C
SMILES: CC(=O)NC1C2CC3CC1CC(O)(C3)C2 (stereo not shown) [compound 6a, N-5-hydroxyadamantan-2-yl acetamide]

blockade of TRPA1 channel activity (TRPA1 [2]; 50 µM compound, 100 µM AITC): up to 85%
IC50 (TRPA1 [2]; dose-response curve, 100 µM AITC, mean ± SEM, n ≥5, read-out: TRPA1 inhibition IC50): 2.6 µM
nH (hill coefficient) of TRPA1 inhibition (TRPA1 [2]; fit to a binding isotherm): 0.21
IC50 (TRPA1 [3]; 2.0 mM extracellular Ca2+, holding potential -60 mV, estimated, read-out: IC50 of blockade of TRPA1-mediated currents): 10.6 ± 0.7 µM
IC50 (TRPA1 [3]; absence of extracellular Ca2+, inferred, saturation of blockade not reached, read-out: IC50 of blockade of TRPA1 currents): ≥ 80 µM
effect on TRPM8 channel activity (TRPM8): No significative effect
effect on COX-2 enzymatic activity (human recombinant COX-2): did not affect the enzymatic activity
SMILES: CC(=O)NC1C2CC3CC1CC(O)(C3)C2 (stereo not shown) [compound 6a/b, N-5-hydroxyadamantan-2-yl acetamide]
analgesic efficacy at saturation, compared with paracetamol and morphine ([1]; at saturation (750 mg/kg i.p.)): significantly higher than paracetamol and similar to morphine
number of stretches ([1]; compound given 30 minutes before CB1 antagonist AM251 (3 mg/kg i.p.)): 13±1
number of stretches ([1]; compound given 30 minutes before CB2 antagonist AM630 (1 mg/kg i.p.)): 15.5±1.7
dose at which the analgesic effect saturated [1, 4]: 750 mg/kg
effect on TRPV1 channel activity (TRPV1): No significative effect

SMILES: CC(=O)Nc1ccc(O)cc1 [paracetamol, 4-hydroxyacetanilide, reference compound]
reduction of the nociceptic behavior (writhes) ([1]; 100 mg/kg i.p. 30 minutes before acetic acid): 40%
